US6426065B1 (Clairol Incorporated, priority 2000, dated 2002)
“Also recorded” adds a separate entry of the source.

What was measured:
[1] = Permanent wave evaluation of waving lotions on hair tresses (waving efficiency); conditions: for Percent Waving Efficiency / Tress Length (cm) Lt: amine 0.75M with 13.2 wt. % (0.8M) GMT, pH 7.5, 37° C. for 20 minutes; for Tress Length (cm) Lt: length of permed hair measured in the water, shorter = tighter curl
From the text: The pH was adjusted using a 10 wt. % HCl solution. Tresses were rolled onto mandrels and evaluated using the permanent wave evaluation procedure that follows. Procedure for Permanent Wave Evaluation […] 1. A bundle of 16 inch long medium virgin brown hair was secured with beeswax by dipping approximately 2 inches of the root end of the bundled hair into melted wax for 5 seconds. When the wax is cool to the touch, it is shaped into a square and allowed to harden. 2. Hair is broken into smaller bundles, washed with a 10 wt. % sodium lauryl sulfate solution and then rinsed. 3. Hair is sectioned into tresses of 45 hairs and the waxed end is re-waxed to further secure the tress. The wax is allowed to dry, and a piece of tape is wrapped around it to provide a writing surface. […] 4. An 8 cm long, 1.25 cm diameter spiral rod with 25 turns is used. The waxed end of the hair is secured between the 9th and 10th turns using a rubber band. […] 5. A piece of tape, width 2.5 cm, is wrapped sideways around the bottom edge of the hair, covering the bottom 2.5 cm. A 3.4 g alligator clip is used to secure the tape. Using a piece of copper wire as a hook, a 6 oz. weight is hung from the tape at the bottom of the hair. The hair is rolled around the rod, using the weight to provide equal tension during rolling. The weight is removed after rolling, and the bottom tape is secured around the rod with a piece of Tygon tubing. 6. […] The solution completely covers the hair. The test tube is placed in a constant temperature water bath at 37° C. for 20 minutes. 7. The rod is removed and rinsed for 3 minutes under running tap water at approximately 30° C. and a flow rate of approximately 1 liter/minute. The rod is then placed into a new test tube with 10 mL of neutralizer (2 wt. % hydrogen peroxide, 0.05 wt. % polyquat-11, and phosphoric acid to pH 3.1). The rod is removed and rinsed with the 30° C. tap water for 2 minutes. 8. The tress is soaked in a bowl of 30° C. tap water for 5 minutes to allow complete oxidation. The tress is then carefully unrolled from the rod without tension, starting from the bottom and keeping the spiral configuration intact. The tape is cut off the hair using scissors while the hair is still on the rod. […] 10. […] A glass container (10×11.5×4 in) is used in which clear plastic rulers are glued along the front and back walls. A copper wire is secured across the top of the container. The rulers should be lined up to provide a way to accurately measure the hair. A copper wire hook is placed through the tape at the top of the tress and hung on the wire. […] Waving Efficiency After the procedure, the lengths of the tresses were measured in a water bath. The shorter the tress, the tighter the curl and the better the product. The curl is measured from the end of the wax to the end of the curl. [formula] where Li=initial length of tress from wax end to tip Lo=length of tress when wrapped on the rod Lt=length of permed hair from wax end to tip, measured in the water

[2] = pKa and free amine of the alkalizer; format: physicochemical; conditions: at a pH of about 7.5

free amine [2]	free amine ([2]; listed as monoethanolamine)	SMILES	Percent Waving Efficiency [1]	Tress Length (cm) Lt [1]	performance as alkalizer in waving lotion (in words) ([1]; low pH waving lotion, in combination with a reducing agent)
–	–	N [Ammonia]	47.8%	15.5 ± 1.2 cm	–
one	1%	NCCO [Monoethanolamine]	45.4%	16.1 ± 0.5 cm	–
about 22%	–	NC(CO)(CO)CO [Tris, tris(hydroxymethyl)amino methane]	–	15.7 ± 0.9 cm	effective alkalizer; also recorded: better results than monoethanolamine
